Our source for the T/C values is PubChem BioAssay AID330 (DTP/NCI, 2004).

This assay relates to P388 leukemia ip, CD2F1 mice, survival T/C. The assay can be described thus: NCI In Vivo Anticancer Drug Screen. Data for tumor model P388 Leukemia (intraperitoneal) in CD2F1 (CDF1) mice. The note with it: endpoint: median survival time, higher = longer survival. The gist of the method: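 Mice carrying the transplanted tumor received test compound or vehicle. Survival was recorded in each group, and the value is the treated-group measurement divided by that of the vehicle-treated control group.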

The mark [1] stands for this setting: dose: 100.0 mg/kg/injection, schedule: Q01DX009 (ip), vehicle: Klucel (hydroxypropylcellulose) (HPC).
[2] abbreviates: dose: 200.0 mg/kg/injection, schedule: Q01DX009 (ip), vehicle: Klucel (hydroxypropylcellulose) (HPC).
The mark [3] stands for this setting: dose: 50.0 mg/kg/injection, schedule: Q04DX003 (ip), vehicle: saline with Tween-80.
[4] abbreviates: dose: 50.0 mg/kg/injection, schedule: Q01DX005 (ip), vehicle: Klucel (hydroxypropylcellulose) (HPC).
Setting [5] is: dose: 100.0 mg/kg/injection, schedule: Q01DX005 (ip), vehicle: Klucel (hydroxypropylcellulose) (HPC).
Setting [6] is: dose: 200.0 mg/kg/injection, schedule: Q01DX005 (ip), vehicle: Klucel (hydroxypropylcellulose) (HPC).
Setting [7] is: dose: 50.0 mg/kg/injection, schedule: Q01DX009 (ip), vehicle: Klucel (hydroxypropylcellulose) (HPC).
Where [8] appears, read: dose: 50.0 mg/kg/injection, schedule: Q01DX005 (ip), vehicle: saline with Tween-80.
Where [9] appears, read: dose: 50.0 mg/kg/injection, schedule: Q01DX009 (ip), vehicle: saline with Tween-80.
Where [10] appears, read: dose: 60.0 mg/kg/injection, schedule: Q01DX005 (ip), vehicle: Klucel (hydroxypropylcellulose) (HPC).
[11] abbreviates: dose: 120.0 mg/kg/injection, schedule: Q01DX005 (ip), vehicle: Klucel (hydroxypropylcellulose) (HPC).
Setting [12] is: dose: 240.0 mg/kg/injection, schedule: Q01DX005 (ip), vehicle: Klucel (hydroxypropylcellulose) (HPC).

“And” between values parts separate entries of the source, which are not always exact repeats. Equal values may be shown once. Inconclusive results and toxic doses are left out.

As for `COc1cc(O)c2c(=O)c3c(O)c(O)ccc3oc2c1`, the T/C (dose: 0.63 mg/kg/injection, schedule: Q01DX009 (ip), vehicle: saline) is 108 % of control; the T/C (dose: 1.25 mg/kg/injection, schedule: Q01DX009 (ip), vehicle: saline) was 110 % of control; the T/C (dose: 2.5 mg/kg/injection, schedule: Q01DX009 (ip), vehicle: saline) was 101 % of control; the T/C (dose: 5.0 mg/kg/injection, schedule: Q01DX009 (ip), vehicle: saline) is 100 % of control.

In the case of `CC[N+](CC)(CC)CC`, the T/C is, setting by setting: (dose: 3.13 mg/kg/injection, schedule: Q04DX003 (ip), vehicle: saline with Tween-80) 100 % of control; (dose: 12.5 mg/kg/injection, schedule: Q04DX003 (ip), vehicle: saline with Tween-80) 118 % of control.

As for `O=c1oc(-c2ccccc2I)ns1`, the T/C runs as follows: under setting [1], 113 % of control; under setting [2], 114 % of control; (dose: 400.0 mg/kg/injection, schedule: Q01DX009 (ip), vehicle: Klucel (hydroxypropylcellulose) (HPC)) 96 % of control.

Consider `CC1=NNC(=O)CC1C(O)c1ccccc1` (centres undefined), for which the T/C (dose: 60.0 mg/kg/injection, schedule: Q01DX005 (ip), vehicle: saline) was 114 % of control; the T/C (dose: 120.0 mg/kg/injection, schedule: Q01DX005 (ip), vehicle: saline) was 101 % of control; the T/C (dose: 240.0 mg/kg/injection, schedule: Q01DX005 (ip), vehicle: saline) is 107 % of control.

As to `CN(C)CCCNC(=O)Cc1cc(O)c2c(c1O)C(=O)c1ccccc1C2=O`, the T/C reads like this: (dose: 25.0 mg/kg/injection, schedule: Q04DX003 (ip), vehicle: saline with Tween-80) 106 % of control; under setting [3], 106 % of control; (dose: 100.0 mg/kg/injection, schedule: Q04DX003 (ip), vehicle: saline with Tween-80) 104 % of control and 123 % of control; (dose: 200.0 mg/kg/injection, schedule: Q04DX003 (ip), vehicle: saline with Tween-80) 120 % of control and 95 % of control.

In the case of `COc1cc(NC(C)=O)c2ncccc2c1NC(C)=O`, the T/C is 99 % of control under setting [4], 96 % of control under setting [5] and 87 % of control under setting [6].

As to `CCOC(=O)C1(CO)C(=O)Nc2ccccc21` (centres undefined), the T/C by setting is: under setting [7], 110 % of control; under setting [1], 106 % of control; under setting [2], 107 % of control.

As for `Cc1c2ccncc2c(C)c2c1[nH]c1ccc(OCCN(C)C)cc12`, the T/C is 108 % of control (dose: 6.25 mg/kg/injection, schedule: Q04DX002 (ip), vehicle: water); 114 % of control (dose: 12.5 mg/kg/injection, schedule: Q04DX002 (ip), vehicle: water); 119 % of control (dose: 25.0 mg/kg/injection, schedule: Q04DX002 (ip), vehicle: water); 87 % of control (dose: 50.0 mg/kg/injection, schedule: Q04DX002 (ip), vehicle: water).

Consider `Nc1nc(N)nc(Cl)n1`, for which the T/C was 100 % of control and 91 % of control (dose: 12.5 mg/kg/injection, schedule: Q01DX009 (ip), vehicle: Klucel (hydroxypropylcellulose) (HPC)); 101 % of control and 104 % of control (dose: 25.0 mg/kg/injection, schedule: Q01DX009 (ip), vehicle: Klucel (hydroxypropylcellulose) (HPC)); 123 % of control and 91 % of control under setting [7]; 104 % of control and 96 % of control under setting [1].

Take `O=C(NC(O)C(Cl)(Cl)Cl)C(Cl)(Cl)Cl` (centres undefined): the T/C under setting [8] is 100 % of control; the T/C (dose: 100.0 mg/kg/injection, schedule: Q01DX005 (ip), vehicle: saline with Tween-80) was 95 % of control; the T/C (dose: 200.0 mg/kg/injection, schedule: Q01DX005 (ip), vehicle: saline with Tween-80) was 107 % of control.

Take `COc1cc(N(C)c2cc(=O)n(C)c(=O)[nH]2)ccc1C`: the T/C reads like this: (dose: 12.5 mg/kg/injection, schedule: Q01DX005 (ip), vehicle: saline with Tween-80) 101 % of control; (dose: 25.0 mg/kg/injection, schedule: Q01DX005 (ip), vehicle: saline with Tween-80) 101 % of control; under setting [8], 100 % of control and 94 % of control.

Regarding `COC(=O)/C=C\C=[N+](/[O-])C(C)(C)C`, the T/C is, setting by setting: (dose: 12.5 mg/kg/injection, schedule: Q01DX001 (ip), vehicle: Klucel (hydroxypropylcellulose) (HPC)) 114 % of control; (dose: 25.0 mg/kg/injection, schedule: Q01DX001 (ip), vehicle: Klucel (hydroxypropylcellulose) (HPC)) 113 % of control; (dose: 50.0 mg/kg/injection, schedule: Q01DX001 (ip), vehicle: Klucel (hydroxypropylcellulose) (HPC)) 113 % of control.

`CC(C)COC1CC(C)(C)c2c(-c3ccccc3)nn(-c3ccccc3)c2O1` (centres undefined): the T/C is 93 % of control (dose: 12.5 mg/kg/injection, schedule: Q01DX009 (ip), vehicle: saline with Tween-80); 93 % of control (dose: 25.0 mg/kg/injection, schedule: Q01DX009 (ip), vehicle: saline with Tween-80); 88 % of control and 93 % of control under setting [9].

For the molecule `CCc1c2c(cc3c1[nH]c1ccccc13)C(=O)OC2=O`, the T/C is, setting by setting: under setting [4], 95 % of control; under setting [5], 86 % of control; under setting [6], 98 % of control.

Take `CCCCCCCCCCCCC[N+]1(CC)CCCCC1`: the T/C (dose: 0.78 mg/kg/injection, schedule: Q01DX009 (ip), vehicle: saline) was 105 % of control; the T/C (dose: 1.56 mg/kg/injection, schedule: Q01DX009 (ip), vehicle: saline) is 118 % of control; the T/C (dose: 3.12 mg/kg/injection, schedule: Q01DX009 (ip), vehicle: saline) is 110 % of control.

`NC(CSC1(c2cccc3ccccc23)c2ccccc2-c2ccccc21)C(=O)O` (centres undefined): the T/C was 93 % of control under setting [10], 90 % of control under setting [11] and 88 % of control under setting [12].

Turning to `Cc1ccnc(C2=C(O)c3ccccc3C2=O)c1`, the T/C under setting [4] is 102 % of control, the T/C under setting [5] was 90 % of control and the T/C under setting [6] was 91 % of control.

`NC(=O)c1cc(C(Cl)Cl)ccn1`: the T/C under setting [10] is 100 % of control, the T/C under setting [11] is 99 % of control and the T/C under setting [12] was 93 % of control.

Take `CC1COC(C)(C)P(c2ccccc2)C1` (centres undefined): the T/C was 102 % of control (dose: 60.0 mg/kg/injection, schedule: Q01DX005 (ip), vehicle: saline with Tween-80); 105 % of control (dose: 120.0 mg/kg/injection, schedule: Q01DX005 (ip), vehicle: saline with Tween-80); 106 % of control (dose: 240.0 mg/kg/injection, schedule: Q01DX005 (ip), vehicle: saline with Tween-80).

Regarding `COC(=O)NCP(=S)(CNC(=O)OC)CNC(=O)OC`, the T/C by setting is: under setting [7], 105 % of control; under setting [1], 96 % of control; under setting [2], 95 % of control.

Regarding `[N-]=[N+]=NP1(=O)OC(c2ccccc2)=CCN1c1ccccc1` (centres undefined), the T/C was 105 % of control under setting [4], 103 % of control under setting [5] and 100 % of control under setting [6].

With `Cc1cc2cc3cc(C)c(N)cc3nc2cc1N`, the T/C is 120 % of control and 219 % of control (dose: 6.25 mg/kg/injection, schedule: Q01DX009 (ip), vehicle: saline with Tween-80); 113 % of control (dose: 12.5 mg/kg/injection, schedule: Q01DX009 (ip), vehicle: saline); 110 % of control (dose: 25.0 mg/kg/injection, schedule: Q01DX009 (ip), vehicle: saline); 97 % of control under setting [9]; 114 % of control (dose: 50.0 mg/kg/injection, schedule: Q01DX009 (ip), vehicle: saline).

Turning to `O=NN(CCCl)C(=O)Nc1cc(Cl)ccc1O`, the T/C under setting [9] was 150 % of control and the T/C under setting [3] is 122 % of control.

For `CCCC(O)(CCC)/C(C)=N/NC(N)=O`, the T/C is 95 % of control under setting [9]; 97 % of control (dose: 100.0 mg/kg/injection, schedule: Q01DX009 (ip), vehicle: saline with Tween-80); 92 % of control (dose: 200.0 mg/kg/injection, schedule: Q01DX009 (ip), vehicle: saline with Tween-80).

As for `COc1ccc(C(NC(N)=O)c2cc3c(cc2OC(C)=O)OCO3)c(OC)c1` (centres undefined), the T/C was 91 % of control (dose: 15.0 mg/kg/injection, schedule: Q01DX005 (ip), vehicle: Klucel (hydroxypropylcellulose) (HPC)); 92 % of control (dose: 30.0 mg/kg/injection, schedule: Q01DX005 (ip), vehicle: Klucel (hydroxypropylcellulose) (HPC)); 90 % of control and 91 % of control under setting [10].
